# Read-outs that look alike come from different tables or passages of the source.
# Assays:
# EGFR = EGFR (Homo sapiens, UniProt P00533); test: ADP-Glo kinase assay, EGFR; type: biochemical; set-up: purchased BPS Bioscience (assay run externally by the vendor)
# aurora A kinase (AURKA) = target: T1, aurora A kinase (AURKA) (Homo sapiens, UniProt O14965); test: ADP-Glo kinase assay, Aurora A; type: biochemical
# T1 construct: purchased BPS Bioscience (assay run externally by the vendor)
# T1 sequence (O14965 1-403): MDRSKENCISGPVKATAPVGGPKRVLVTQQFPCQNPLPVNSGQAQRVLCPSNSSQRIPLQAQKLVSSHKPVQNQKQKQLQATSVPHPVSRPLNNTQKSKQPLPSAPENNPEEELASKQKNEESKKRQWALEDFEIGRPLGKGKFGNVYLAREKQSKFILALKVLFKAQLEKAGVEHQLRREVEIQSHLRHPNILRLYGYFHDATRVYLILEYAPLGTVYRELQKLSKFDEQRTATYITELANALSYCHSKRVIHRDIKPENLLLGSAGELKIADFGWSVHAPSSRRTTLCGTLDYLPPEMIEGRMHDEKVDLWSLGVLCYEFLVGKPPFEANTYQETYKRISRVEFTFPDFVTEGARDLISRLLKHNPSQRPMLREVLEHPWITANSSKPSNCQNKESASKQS
# EGFR, sequence (P00533 25-1210): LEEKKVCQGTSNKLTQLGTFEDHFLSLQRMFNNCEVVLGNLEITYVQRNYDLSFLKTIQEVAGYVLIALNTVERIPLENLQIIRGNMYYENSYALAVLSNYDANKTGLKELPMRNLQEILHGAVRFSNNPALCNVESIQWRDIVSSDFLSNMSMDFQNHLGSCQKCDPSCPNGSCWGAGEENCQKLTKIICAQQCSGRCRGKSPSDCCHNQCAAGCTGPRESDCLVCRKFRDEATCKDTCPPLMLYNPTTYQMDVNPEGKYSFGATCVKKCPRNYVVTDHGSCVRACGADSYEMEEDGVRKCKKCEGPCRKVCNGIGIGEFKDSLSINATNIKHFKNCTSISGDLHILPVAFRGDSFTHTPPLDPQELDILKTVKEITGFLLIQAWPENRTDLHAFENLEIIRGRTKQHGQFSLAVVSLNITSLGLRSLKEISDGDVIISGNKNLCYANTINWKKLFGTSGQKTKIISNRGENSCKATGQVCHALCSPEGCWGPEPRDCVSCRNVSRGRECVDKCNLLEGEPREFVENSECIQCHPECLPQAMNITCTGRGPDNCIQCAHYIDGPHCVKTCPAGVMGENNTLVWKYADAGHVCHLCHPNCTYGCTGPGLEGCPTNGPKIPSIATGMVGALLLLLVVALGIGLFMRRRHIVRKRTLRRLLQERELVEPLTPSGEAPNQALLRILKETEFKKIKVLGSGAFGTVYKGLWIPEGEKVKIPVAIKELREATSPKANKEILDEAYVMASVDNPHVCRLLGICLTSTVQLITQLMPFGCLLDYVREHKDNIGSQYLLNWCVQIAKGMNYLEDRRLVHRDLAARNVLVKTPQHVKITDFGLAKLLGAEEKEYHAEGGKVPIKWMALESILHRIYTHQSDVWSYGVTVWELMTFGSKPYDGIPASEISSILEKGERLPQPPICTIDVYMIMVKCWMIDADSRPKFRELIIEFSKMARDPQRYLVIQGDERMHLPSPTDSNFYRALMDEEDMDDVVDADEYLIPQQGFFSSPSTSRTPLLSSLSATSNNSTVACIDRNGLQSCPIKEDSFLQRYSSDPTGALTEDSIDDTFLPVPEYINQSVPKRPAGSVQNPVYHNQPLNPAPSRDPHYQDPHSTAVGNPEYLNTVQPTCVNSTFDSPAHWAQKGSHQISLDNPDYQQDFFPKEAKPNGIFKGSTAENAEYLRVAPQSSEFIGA
structure (smiles),measurement,setting,value
"Nc1nc(Nc2cccc(Br)c2)c2cc[nH]c2n1 [Compound 8, N^4-(3-bromophenyl)-7H-pyrrolo[2,3-d]pyrimidine-2,4-diamine]",Fold less potent than compound 7 against EGFR,EGFR,100 fold
same,IC50,"EGFR; 10 µM ATP, triplicate, read-out: EGFR IC50 ± SD",384 ± 65.5 nM
same,IC50,"EGFR; 10 µM ATP/0.2 mg/ml Poly-Glu-Tyr, read-out: EGFR IC50 (dose-response curve, supplement)",357 nM
same,EGFR % Activity Set1,EGFR; Log[nM] 0,97%
same,EGFR % Activity Set2,EGFR; Log[nM] 0,99%
same,EGFR % Activity Set3,EGFR; Log[nM] 0,99%
same,EGFR % Activity Set1,EGFR; Log[nM] 1.0,95%
same,EGFR % Activity Set2,EGFR; Log[nM] 1.0,102%
same,EGFR % Activity Set3,EGFR; Log[nM] 1.0,91%
same,EGFR % Activity Set1,EGFR; Log[nM] 1.5,93%
same,EGFR % Activity Set2,EGFR; Log[nM] 1.5,102%
same,EGFR % Activity Set3,EGFR; Log[nM] 1.5,84%
same,EGFR % Activity Set1,EGFR; Log[nM] 2.0,80%
same,EGFR % Activity Set2,EGFR; Log[nM] 2.0,83%
same,EGFR % Activity Set3,EGFR; Log[nM] 2.0,82%
same,EGFR % Activity Set1,EGFR; Log[nM] 2.5,51%
same,EGFR % Activity Set2,EGFR; Log[nM] 2.5,49%
same,EGFR % Activity Set3,EGFR; Log[nM] 2.5,53%
same,EGFR % Activity Set1,EGFR; Log[nM] 3.0,26%
same,EGFR % Activity Set2,EGFR; Log[nM] 3.0,23%
same,EGFR % Activity Set3,EGFR; Log[nM] 3.0,27%
same,EGFR % Activity Set1,EGFR; Log[nM] 3.5,12%
same,EGFR % Activity Set2,EGFR; Log[nM] 3.5,9%
same,EGFR % Activity Set3,EGFR; Log[nM] 3.5,10%
same,EGFR % Activity Set1,EGFR; Log[nM] 4.0,4%
same,EGFR % Activity Set2,EGFR; Log[nM] 4.0,5%
same,EGFR % Activity Set3,EGFR; Log[nM] 4.0,4%
same,EGFR % Activity Set1,EGFR; Log[nM] 4.5,2%
same,EGFR % Activity Set2,EGFR; Log[nM] 4.5,3%
same,EGFR % Activity Set3,EGFR; Log[nM] 4.5,1%
same,EGFR % Activity Set1,EGFR; Log[nM] 5.0,1%
same,EGFR % Activity Set2,EGFR; Log[nM] 5.0,1%
same,EGFR % Activity Set3,EGFR; Log[nM] 5.0,2%
same,Fold less potent than compound 2 against AURKA,aurora A kinase (AURKA),approximately two-fold
same,IC50,"aurora A kinase (AURKA); 10 µM ATP, triplicate, read-out: AURKA IC50 ± SD",4540 ± 930 nM
same,IC50,"aurora A kinase (AURKA); 10 µM ATP/0.2 mg/ml Kemptide, read-out: Aurora A IC50 (dose-response curve, supplement)",4500 nM
same,Aurora A % Activity Set1,aurora A kinase (AURKA); Log[nM] 0,103%
same,Aurora A % Activity Set2,aurora A kinase (AURKA); Log[nM] 0,107%
same,Aurora A % Activity Set3,aurora A kinase (AURKA); Log[nM] 0,99%
same,Aurora A % Activity Set1,aurora A kinase (AURKA); Log[nM] 1.0,110%
same,Aurora A % Activity Set2,aurora A kinase (AURKA); Log[nM] 1.0,101%
same,Aurora A % Activity Set3,aurora A kinase (AURKA); Log[nM] 1.0,111%
same,Aurora A % Activity Set1,aurora A kinase (AURKA); Log[nM] 1.5,109%
same,Aurora A % Activity Set2,aurora A kinase (AURKA); Log[nM] 1.5,108%
same,Aurora A % Activity Set3,aurora A kinase (AURKA); Log[nM] 1.5,105%
same,Aurora A % Activity Set1,aurora A kinase (AURKA); Log[nM] 2.0,109%
same,Aurora A % Activity Set2,aurora A kinase (AURKA); Log[nM] 2.0,109%
same,Aurora A % Activity Set3,aurora A kinase (AURKA); Log[nM] 2.0,109%
same,Aurora A % Activity Set1,aurora A kinase (AURKA); Log[nM] 2.5,96%
same,Aurora A % Activity Set2,aurora A kinase (AURKA); Log[nM] 2.5,101%
same,Aurora A % Activity Set3,aurora A kinase (AURKA); Log[nM] 2.5,113%
same,Aurora A % Activity Set1,aurora A kinase (AURKA); Log[nM] 3.0,84%
same,Aurora A % Activity Set2,aurora A kinase (AURKA); Log[nM] 3.0,80%
same,Aurora A % Activity Set3,aurora A kinase (AURKA); Log[nM] 3.0,92%
same,Aurora A % Activity Set1,aurora A kinase (AURKA); Log[nM] 3.5,55%
same,Aurora A % Activity Set2,aurora A kinase (AURKA); Log[nM] 3.5,57%
same,Aurora A % Activity Set3,aurora A kinase (AURKA); Log[nM] 3.5,59%
same,Aurora A % Activity Set1,aurora A kinase (AURKA); Log[nM] 4.0,30%
same,Aurora A % Activity Set2,aurora A kinase (AURKA); Log[nM] 4.0,28%
same,Aurora A % Activity Set3,aurora A kinase (AURKA); Log[nM] 4.0,29%
same,Aurora A % Activity Set1,aurora A kinase (AURKA); Log[nM] 4.5,11%
same,Aurora A % Activity Set2,aurora A kinase (AURKA); Log[nM] 4.5,11%
same,Aurora A % Activity Set3,aurora A kinase (AURKA); Log[nM] 4.5,11%
same,Aurora A % Activity Set1,aurora A kinase (AURKA); Log[nM] 5.0,8%
same,Aurora A % Activity Set2,aurora A kinase (AURKA); Log[nM] 5.0,7%
same,Aurora A % Activity Set3,aurora A kinase (AURKA); Log[nM] 5.0,8%
